Assay results reported in publication PMC6445163, “Design, synthesis, and evaluation of novel 2-phenylpropionic acid derivatives as dual COX inhibitory-antibacterial agents” (Journal of Enzyme Inhibition and Medicinal Chemistry, 2017).
In brackets after ≈: the same amount, converted by molar mass.

Legend:
[1] = target: T1, COX-1 (Ovis aries, UniProt P05979); assay: fluorometric COX-1 inhibitor screening kit assay; format: biochemical; settings: for SI (selectivity index): IC50 (COX-1)/IC50 (COX-2); for IC50: fluorometric kit, 25 °C; for Selectivity: isoform preferred according to SI
T1 construct: purchased Biovision K548-100
T1 sequence (P05979 25-600): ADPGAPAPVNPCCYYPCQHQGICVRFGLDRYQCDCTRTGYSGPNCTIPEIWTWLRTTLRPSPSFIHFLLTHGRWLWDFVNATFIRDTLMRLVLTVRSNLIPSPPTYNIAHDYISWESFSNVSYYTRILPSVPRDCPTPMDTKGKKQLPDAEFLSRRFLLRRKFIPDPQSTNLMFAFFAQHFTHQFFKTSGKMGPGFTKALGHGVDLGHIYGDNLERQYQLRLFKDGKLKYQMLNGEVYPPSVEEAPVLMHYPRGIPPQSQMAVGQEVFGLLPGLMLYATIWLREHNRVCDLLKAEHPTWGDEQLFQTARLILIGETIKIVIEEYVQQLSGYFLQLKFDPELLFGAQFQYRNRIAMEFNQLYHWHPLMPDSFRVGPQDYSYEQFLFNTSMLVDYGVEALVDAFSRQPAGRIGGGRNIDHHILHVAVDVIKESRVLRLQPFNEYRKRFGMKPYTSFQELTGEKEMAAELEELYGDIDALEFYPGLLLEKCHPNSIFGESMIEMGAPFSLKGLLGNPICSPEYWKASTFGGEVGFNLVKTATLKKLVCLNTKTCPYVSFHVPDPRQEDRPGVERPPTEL
Description: (§1) Inhibitory potency of the compounds against COX-1 and COX-2 enzymes was determined using fluorometric COX-1 and COX-2 inhibitor screening kits (Biovision, Zurich, Switzerland). Experimental protocol was followed as described in the guides of the supplier[47]^,[48]. All of the pipettings in the assay were performed by Biotek Precision robotic system (BioTek Instruments, Inc., Winooski, VT). […] Appropriate two points (T1 and T2) in the linear range of the plot were chosen, and the corresponding fluorescence values (RFU1 and RFU2) were obtained. The slope for all samples, including enzyme control (EC), by dividing the net ΔRFU (RFU2–RFU1) values by the time ΔT (T2–T1) were calculated by using following equation: % Relative inhibition=(Slope of EC-Slope of S/Slope of EC)×100
(§2) This initial in vitro assay was done with two concentrations (10^−3 and 10^−4 M) for all compounds. […] The IC50 value was calculated from the plots of enzyme activity against concentrations by applying regression analyses on GraphPad Prism Version 5 (GraphPad Software, La Jolla, CA).
(§3) Selectivity indexes (SI) were expressed as IC50 (COX-1)/IC50 (COX-2). Selectivity toward COX-2 decreases as the corresponding SI decreases while selectivity toward COX-1 isoform increases as the corresponding SI decreases.

[2] = target: T2, COX-2 (Homo sapiens, UniProt P35354); assay: fluorometric COX-2 inhibitor screening kit assay; format: biochemical; settings: 25 °C
T2 construct: purchased Biovision K547-100
T2 sequence (P35354 18-604): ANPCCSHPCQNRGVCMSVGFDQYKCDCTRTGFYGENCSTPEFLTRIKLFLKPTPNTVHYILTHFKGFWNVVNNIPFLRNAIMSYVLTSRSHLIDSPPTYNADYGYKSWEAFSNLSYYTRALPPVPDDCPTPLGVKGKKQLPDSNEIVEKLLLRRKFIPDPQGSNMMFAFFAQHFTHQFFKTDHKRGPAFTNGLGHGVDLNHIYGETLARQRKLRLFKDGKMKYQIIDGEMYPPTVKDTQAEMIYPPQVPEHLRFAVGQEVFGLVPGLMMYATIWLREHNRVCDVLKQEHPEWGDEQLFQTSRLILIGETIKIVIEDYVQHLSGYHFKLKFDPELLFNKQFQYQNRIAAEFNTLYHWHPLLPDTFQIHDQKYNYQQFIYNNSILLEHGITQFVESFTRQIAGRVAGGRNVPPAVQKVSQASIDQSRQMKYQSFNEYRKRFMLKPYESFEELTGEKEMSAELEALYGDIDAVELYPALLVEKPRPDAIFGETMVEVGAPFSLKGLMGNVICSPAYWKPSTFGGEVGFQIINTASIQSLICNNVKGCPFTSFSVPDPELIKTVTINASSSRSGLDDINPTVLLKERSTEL
Description: as §1, §2, §3

[3] = test system: Enterococcus faecalis (ATCC 29212); assay: broth microdilution MIC (CLSI M07-A9), resazurin; format: cell-based; settings: ATCC29212, 24 h
Description: (§4) Microbiological studies were performed according to following guides: CLSI reference […]-A9 broth microdilution method[49] for bacterial strains and EUCAST definitive (EDef 7.1) method[50] for Candida species. Synthesized compounds were tested for their in vitro growth inhibitory activity against Staphylococcus aureus (ATCC 25923), Enterococcus faecalis (ATCC 29212), Listeria monocytogenes (ATCC 1911), Klebsiella pneumoniae (NCTC 9633), Escherichia coli (ATCC 35218), E. coli (ATCC 25922) Candida albicans (ATCC 24433) Candida krusei (ATCC 6258) and Candida parapsilosis (ATCC 22019). Chloramphenicol and ketoconazole were used as control drugs. The cultures were obtained from the Mueller-Hinton broth (Difco) for the bacterial strains after overnight incubation at 37 °C. The yeasts were maintained in Roswell Park Memorial Institute (RPMI) after overnight incubation at 37 °C. […] Testing was carried out in Mueller-Hinton broth and RPMI at pH =7, and the two-fold serial dilutions technique was applied. The last well on the microplates containing only inoculated broth was kept as controls and the last well with no growth of microorganism was recorded to represent the minimum inhibitory concentration (MIC) expressed in μg/mL. For both the antibacterial and antifungal assays, the compounds were dissolved in DMSO. […] The completed plates were incubated for 24 h. At the end of the incubation, resazurin (20 μg/mL) was added into each well and plates were incubated for 2 h. MIC values were determined using a microplate reader at […]. Synthesized compounds (6a-6m) were evaluated for antimicrobial activity against various microorganisms such as Staphylococcus aureus (ATCC 25923), Enterococcus faecalis (ATCC 29212), Listeria monocytogenes (ATCC 1911), Klebsiella pneumoniae (NCTC 9633), Escherichia coli (ATCC 35218), E. coli (ATCC 25922)Candida albicans (ATCC 24433) Candida krusei (ATCC 6258) and Candida parapsilosis (ATCC 22019). […] Chloramphenicol and ketoconazole were used as standard drugs in the activity test. […] Besides, the compounds 6d, 6h, 6l and 6m indicated stronger antibacterial activity than the other compounds in the series.

[4] = test system: Escherichia coli (ATCC 25922); assay: broth microdilution MIC (CLSI M07-A9), resazurin; format: cell-based; settings: ATCC25922, 24 h, read-out: MIC Ec-2
Description: as §4

[5] = test system: Escherichia coli (ATCC 35218); assay: broth microdilution MIC (CLSI M07-A9), resazurin; format: cell-based; settings: ATCC35218, 24 h, read-out: MIC Ec-1
Description: as §4

[6] = test system: Klebsiella pneumoniae (NCTC 9633); assay: broth microdilution MIC (CLSI M07-A9), resazurin; format: cell-based; settings: 24 h
Description: as §4

[7] = test system: Listeria monocytogenes (ATCC 1911); assay: broth microdilution MIC (CLSI M07-A9), resazurin; format: cell-based; settings: ATCC1911, 24 h
Description: as §4

[8] = test system: Staphylococcus aureus (ATCC 25923); assay: broth microdilution MIC (CLSI M07-A9), resazurin; format: cell-based; settings: ATCC25923, 24 h
Description: as §4

[9] = test system: Candida albicans (ATCC 24433); assay: broth dilution MIC (EUCAST EDef 7.1), resazurin; format: cell-based; settings: ATCC24433, 24 h
Description: as §4

[10] = test system: Candida krusei (ATCC 6258); assay: broth dilution MIC (EUCAST EDef 7.1), resazurin; format: cell-based; settings: Pichia kudriavzevii, ATCC6258, 24 h
Description: as §4

[11] = test system: Candida parapsilosis (ATCC 22019); assay: broth dilution MIC (EUCAST EDef 7.1), resazurin; format: cell-based; settings: ATCC22019, 24 h
Description: as §4

[12] = MTT cytotoxicity test; settings: mouse
Description: NIH/3T3 cells were incubated according to the supplier’s recommendations. NIH/3T3 cells were seeded at 1 × 10^4 cells into each well of 96-well plates. MTT assay was performed as previously described[51]^,[52].
There are a number of requirements to be fulfilled for successful new drug development. […] This assay is based upon the reduction of yellow MTT dye by metabolically active eukaryotic and prokaryotic cells to form the purple formazan product. The assay is generally used to examine cell viability and to estimate cell culture growth[66]^,[67].

Row | Structure (SMILES) | SI (selectivity index) [1] | IC50 [1] | Selectivity [1] | IC50 [2] | MIC [3] | MIC [4] | MIC [5] | MIC Kp [6] | MIC [7] | MIC [8] | MIC [9] | MIC [10] | MIC [11] | melting point | IC50 [12]
1 | CC(C(=O)O)c1ccc(CSc2nc3ccccc3[nH]2)cc1 (centres unmarked) [Compound 6i, 2-(4-(((1H-benzo[d]imidazol-2-yl)thio)methyl)phenyl)propanoic acid] | 0.62 | 5.9 µM | COX-1 | 9.56 µM | 12.5 µg/mL (≈ 40 µM) | 12.5 µg/mL (≈ 40 µM) | 6.25 µg/mL (≈ 20 µM) | 6.25 µg/mL (≈ 20 µM) | 12.5 µg/mL (≈ 40 µM) | 12.5 µg/mL (≈ 40 µM) | 100 µg/mL (≈ 320 µM) | 100 µg/mL (≈ 320 µM) | 50 µg/mL (≈ 160 µM) | 208.7 to 210.9 °C | –
2 | Cc1ccc2[nH]c(SCc3ccc(C(C)C(=O)O)cc3)nc2c1 (centres unmarked) [Compound 6j, 2-(4-(((5-Methyl-1H-benzo[d]imidazol-2-yl)thio)methyl)phenyl)propanoic acid] | 0.58 | 4.4 µM | COX-1 | 7.53 µM | 12.5 µg/mL (≈ 38.3 µM) | 12.5 µg/mL (≈ 38.3 µM) | 6.25 µg/mL (≈ 19.1 µM) | 6.25 µg/mL (≈ 19.1 µM) | 12.5 µg/mL (≈ 38.3 µM) | 12.5 µg/mL (≈ 38.3 µM) | 100 µg/mL (≈ 306 µM) | 100 µg/mL (≈ 306 µM) | 50 µg/mL (≈ 153 µM) | 209.1 to 211.6 °C | –
3 | CC(C(=O)O)c1ccc(CSc2nc3cc(Cl)ccc3[nH]2)cc1 (centres unmarked) [Compound 6k, 2-(4-(((5-Chloro-1H-benzo[d]imidazol-2-yl)thio)methyl)phenyl)propanoic acid] | 0.63 | 3.71 µM | COX-1 | 5.91 µM | 12.5 µg/mL (≈ 36 µM) | 12.5 µg/mL (≈ 36 µM) | 6.25 µg/mL (≈ 18 µM) | 6.25 µg/mL (≈ 18 µM) | 12.5 µg/mL (≈ 36 µM) | 12.5 µg/mL (≈ 36 µM) | 50 µg/mL (≈ 144 µM) | 50 µg/mL (≈ 144 µM) | 50 µg/mL (≈ 144 µM) | 208.8 to 211.5 °C | –
4 | CC(C(=O)O)c1ccc(CSc2nc3cc([N+](=O)[O-])ccc3[nH]2)cc1 (centres unmarked) [Compound 6m, 2-(4-(((5-Nitro-1H-benzo[d]imidazol-2-yl)thio)methyl)phenyl)propanoic acid] | 0.52 | 4.48 µM | COX-1 | 8.66 µM | 6.25 µg/mL (≈ 17.5 µM) | 6.25 µg/mL (≈ 17.5 µM) | 6.25 µg/mL (≈ 17.5 µM) | 6.25 µg/mL (≈ 17.5 µM) | 12.5 µg/mL (≈ 35 µM) | 6.25 µg/mL (≈ 17.5 µM) | 50 µg/mL (≈ 140 µM) | 50 µg/mL (≈ 140 µM) | 50 µg/mL (≈ 140 µM) | 176.5 to 178.7 °C | –
5 | CC(C)Cc1ccc(C(C)C(=O)O)cc1 (centres unmarked) [Ibuprofen, reference compound] | – | – | – | – | – | – | – | – | – | – | – | – | – | – | ≥ 1000 µM
6 | CS(=O)(=O)Nc1ccc([N+](=O)[O-])cc1Oc1ccccc1 [Nimesulide, reference compound] | – | 4.28 µM | – | – | – | – | – | – | – | – | – | – | – | – | ≥ 1000 µM
